Data published in US8907076B2, “Mycobacterial peptide deformylase” (Council of Scientific and Industrial Research, priority 2006, dated 2014).

How the values were obtained:
endogenous PDF protein = assay type: cell-based, Mycobacterium smegmatis
[1] = test system: Mycobacterium smegmatis strain mc^2155; assay: Growth profile of M. smegmatis culture with antisense PS-ODNs (OD600 and colony forming units); conditions: 10 μM PS-ODN, 24 h, 7H9 Middlebrook broth
E. coli = assay: Growth of E. coli culture with antisense PS-ODN (colony forming units); assay type: cell-based, Escherichia coli; conditions: 10 μM PS-ODN, Lauria-Bertani medium; colony forming units vs untreated
Experimental: Further, to ensure that PS-ODN1 permeabilized within the M. smegmatis cells, PS-ODN1 were conjugated with 3′Flourescein label and used for the treatment of mycobacterial culture (˜1×10^5 cells of M. smegmatis were incubated with 10 μM PS-ODNs in 3 ml 7H9 Middlebrook broth supplemented with 10% ADC and grown at 37° C./200 rpm for 24 hrs). […] Since PS-ODN1 was mycobacteria specific, in E. coli where this insertion sequence is absent, when culture was treated with 10 μM PS-ODN1 had no effect on its growth. (FIG. 7, right panel).

PS-ODN1: 5′ phosphothiorate modified antisense oligodeoxyribonucleotide spanning bases 219-249 of M. tuberculosis def (insertion region); probably SEQ ID NO: 14 (antisense CGGATTGATGACCACACCGCGTCGGCGGGCGGTCAT; DNA, backbone and methylation of C not given here; phosphorothioate modified at 5'; listed as Mycobacterium tuberculosis)
level of expression of endogenous PDF protein compared to untreated control (endogenous PDF protein): significant reduction
decrease in growth of M. smegmatis compared to the untreated culture [1]: five-fold decrease
effect on growth profile of E. coli (E. coli): no effect
